Source: patent publication US20150322051A1, “Macrocyclic picolinamides as fungicides” (Dow AgroSciences LLC, priority 2014, published 2015)
Where two headings read alike, the source gives them in different places.

What was measured:
[1] = tested on: Puccinia triticina; synonym: Puccinia recondita f. sp. tritici (PUCCRT); experiment: Wheat brown rust (PUCCRT) whole-plant fungicidal test; format: in vivo; settings: topical; for pest or weed control at 121.5 g/ha: low volume (track spray) application, 121.5 g/H; for pest or weed control at 100 ppm: high volume application
[2] = tested on: Mycosphaerella graminicola; anamorph: Septoria tritici (SEPTTR); experiment: Leaf blotch of wheat (SEPTTR) whole-plant fungicidal test; format: in vivo; settings: Zymoseptoria tritici, topical; for pest or weed control at 121.5 g/ha: low volume (track spray) application, 121.5 g/H; for pest or weed control at 100 ppm: high volume application
[3] = 24 h, 1 Day Protectant, read-out: Low Volume activity at 121.5 g/H PUCCRT 1DP (% disease control rating)
[4] = 72 h, 3 Day Curative, read-out: Low Volume activity at 121.5 g/H PUCCRT 3DC (% disease control rating)
[5] = 24 h, 1 Day Protectant, read-out: Low Volume activity at 121.5 g/H SEPTTR 1DP (% disease control rating)
[6] = 72 h, 3 Day Curative, read-out: Low Volume activity at 121.5 g/H SEPTTR 3DC (% disease control rating)
[7] = 24 h, 1 Day Protectant, read-out: High Volume activity at 100 ppm PUCCRT 1DP (% disease control rating)
[8] = 72 h, 3 Day Curative, read-out: High Volume activity at 100 ppm PUCCRT 3DC (% disease control rating)
[9] = 24 h, 1 Day Protectant, read-out: High Volume activity at 100 ppm SEPTTR 1DP (% disease control rating)
[10] = 72 h, 3 Day Curative, read-out: High Volume activity at 100 ppm SEPTTR 3DC (% disease control rating)

SMILES | melting point | pest or weed control at 121.5 g/ha [1, 3] | pest or weed control at 121.5 g/ha [1, 4] | pest or weed control at 121.5 g/ha [2, 5] | pest or weed control at 121.5 g/ha [2, 6] | pest or weed control at 100 ppm [1, 7] | pest or weed control at 100 ppm [1, 8] | pest or weed control at 100 ppm [2, 9] | pest or weed control at 100 ppm [2, 10]
C[C@@H]1OC(=O)[C@@H](N)CCC[C@H](Cc2ccc(C(F)(F)F)cc2)[C@H]1Cc1ccc(OC(F)(F)F)cc1.Cl | 215 to 217 °C | – | – | – | – | – | – | – | –
COc1ccnc(C(=O)N[C@H]2CCC[C@H](Cc3ccccc3)[C@@H](CC(C)C)[C@H](C)OC2=O)c1O [Compound 77] | 73 to 76 °C | – | – | – | – | – | – | – | –
COc1ccnc(C(=O)N[C@H]2CCC[C@H](Cc3ccc(Cl)cc3)[C@@H](Cc3ccccc3)[C@H](C)OC2=O)c1OCOC(C)=O [Compound 19] | 98 to 100 °C | > 70% | < 70% | > 70% | > 70% | – | – | – | –
COc1ccnc(C(=O)N[C@H]2CCC[C@H](Cc3ccccc3)[C@@H](CC(C)C)[C@H](C)OC2=O)c1OCOC(C)=O [Compound 14] | 60 to 64 °C | > 70% | < 70% | > 70% | > 70% | – | – | – | –
C[C@@H]1OC(=O)[C@@H](NC(=O)OC(C)(C)C)CCC[C@H](Cc2ccc(C(F)(F)F)cc2)[C@H]1Cc1ccc(OC(F)(F)F)cc1 [Compound 152] | 65 to 67 °C | – | – | – | – | – | – | – | –
C[C@@H]1OC(=O)[C@@H](N)CCC[C@H](CCCc2ccccc2)[C@H]1Cc1ccc(OC(F)(F)F)cc1.Cl | 227 to 232 °C | – | – | – | – | – | – | – | –
C[C@@H]1OC(=O)[C@@H](N)CCC[C@H](Cc2ccccc2)[C@H]1Cc1ccc(OC(F)(F)F)cc1.Cl | 196 to 198 °C | – | – | – | – | – | – | – | –
CC(C)C[C@@H]1[C@@H](Cc2ccccc2)CCC[C@H](N)C(=O)O[C@H]1C.Cl | 221 to 224 °C | – | – | – | – | – | – | – | –
COc1ccnc(C(=O)N[C@H]2CCC[C@H](CCCc3ccccc3)[C@@H](Cc3ccc(OC(F)(F)F)cc3)[C@H](C)OC2=O)c1O [Compound 93] | 49 to 53 °C | – | – | – | – | < 70% | < 70% | < 70% | < 70%
COc1ccnc(C(=O)N[C@H]2CCC[C@H](Cc3ccc(Cl)cc3)[C@@H](CC(C)C)[C@H](C)OC2=O)c1O [Compound 76] | – | – | – | – | – | > 70% | < 70% | > 70% | > 70%
COc1ccnc(C(=O)N[C@H]2CCC[C@H](CCCc3ccccc3)[C@@H](Cc3ccccc3)[C@H](C)OC2=O)c1OCOC(C)=O [Compound 70] | – | > 70% | < 70% | > 70% | > 70% | – | – | – | –
COc1ccnc(C(=O)N[C@H]2CCC[C@H](Cc3ccccc3)[C@@H](CCC(C)C)[C@H](C)OC2=O)c1OCOC(C)=O [Compound 47] | – | > 70% | < 70% | > 70% | > 70% | – | – | – | –
CCOCC(=O)OCOc1c(OC)ccnc1C(=O)N[C@H]1CCC[C@H](Cc2ccccc2)[C@@H](Cc2ccccc2)[C@H](C)OC1=O [Compound 8, ((2-(((3S,7R,8R,9S)-7,8-dibenzyl-9-methyl-2-oxooxonan-3-yl)carbamoyl)-4-methoxypyridin-3-yl)oxy)methyl 2-ethoxyacetate] | – | > 70% | < 70% | > 70% | > 70% | – | – | – | –
CCCC[C@@H]1[C@@H](Cc2ccccc2)CCC[C@H](NC(=O)c2nccc(OC)c2O)C(=O)O[C@H]1C [Compound 71, N-((3S,7R,8R,9S)-7-benzyl-8-butyl-9-methyl-2-oxooxonan-3-yl)-3-hydroxy-4-methoxypicolinamide] | – | – | – | – | – | > 70% | > 70% | > 70% | < 70%
CCCC[C@@H]1[C@@H](Cc2ccccc2)CCC[C@H](NC(=O)c2nccc(OC)c2OC(C)=O)C(=O)O[C@H]1C [Compound 1, 2-(((3S,7R,8R,9S)-7-benzyl-8-butyl-9-methyl-2-oxooxonan-3-yl)carbamoyl)-4-methoxypyridin-3-yl acetate] | – | > 70% | < 70% | > 70% | > 70% | > 70% | > 70% | > 70% | > 70%
COc1ccnc(C(=O)N[C@H]2CCC[C@H](Cc3ccc(C(F)(F)F)cc3)[C@@H](Cc3ccccc3)[C@H](C)OC2=O)c1O [Compound 81] | – | – | – | – | – | > 70% | < 70% | > 70% | < 70%
COc1ccnc(C(=O)N[C@H]2CCC[C@H](Cc3ccccc3)[C@@H](Cc3ccc(OC(F)(F)F)cc3)[C@H](C)OC2=O)c1O [Compound 97] | – | – | – | – | – | > 70% | < 70% | > 70% | < 70%
COc1ccnc(C(=O)N[C@H]2CCC[C@H](CCCc3ccccc3)[C@@H](Cc3ccc(OC(F)(F)F)cc3)[C@H](C)OC2=O)c1OC(C)=O [Compound 57] | – | < 70% | < 70% | < 70% | < 70% | – | – | – | –
COc1ccnc(C(=O)N[C@H]2CCC[C@H](Cc3ccccc3)[C@@H](Cc3ccccc3)[C@H](C)OC2=O)c1OCOC(=O)C(C)C [Compound 7, ((2-(((3S,7R,8R,9S)-7,8-dibenzyl-9-methyl-2-oxooxonan-3-yl)carbamoyl)-4-methoxypyridin-3-yl)oxy)methyl isobutyrate] | – | > 70% | > 70% | > 70% | > 70% | – | – | – | –
COc1ccnc(C(=O)N[C@H]2CCC[C@H](Cc3ccccc3)[C@@H](c3ccccc3)[C@H](C)OC2=O)c1OC(C)=O [Compound 53] | – | > 70% | < 70% | > 70% | > 70% | – | – | – | –
COc1ccnc(C(=O)N[C@H]2CCC[C@H](CCCc3ccccc3)[C@@H](CC(C)C)[C@H](C)OC2=O)c1OC(C)=O [Compound 56] | – | > 70% | < 70% | > 70% | < 70% | – | – | – | –
COc1ccnc(C(=O)N[C@H]2CCC[C@H](Cc3ccccc3)[C@@H](CCC(C)C)[C@H](C)OC2=O)c1OC(=O)C(C)C [Compound 49] | – | < 70% | < 70% | > 70% | > 70% | – | – | – | –
CCOCC(=O)OCOc1c(OC)ccnc1C(=O)N[C@H]1CCC[C@H](Cc2ccccc2)[C@@H](Cc2ccc(OC(F)(F)F)cc2)[C@H](C)OC1=O [Compound 69] | – | < 70% | < 70% | > 70% | < 70% | – | – | – | –
